According to patent US8461152B2, “Arylcyclohexylethers of dihydrotetraazabenzoazulenes” (Hoffmann-La Roche Inc., priority 2008, dated 2013):
Structures can show the parent of a compound that is named as a salt.

molecular target: T1, human V1a receptor (Homo sapiens, UniProt P37288); assay: human V1a receptor binding studies (SPA, 3H-Vasopressin, membranes of transfected HEK293 cells); conditions: displacement of 3H-Vasopressin, HEK293 cell membranes, 1 h at room temperature; Ki by Cheng-Prussoff equation; read-out: pKi (hV1a) (converted)
T1 construct: expressed in transfected cells; host or cells: HEK293 cells, transiently transfected; membrane preparation
Procedure: The human V1a receptor was cloned by RT-PCR from total human liver RNA. The coding sequence was subcloned in an expression vector after sequencing to confirm the identity of the amplified sequence. […] Cell membranes were prepared from HEK293 cells transiently transfected with the expression vector and grown in 20 liter fermenters with the following protocol.
50 g of cells are resuspended in 30 ml freshly prepared ice cold Lysis buffer (50 mM HEPES, 1 mM EDTA, 10 mM magnesium dichloride adjusted to pH=7.4+complete cocktail of protease inhibitor (Roche Diagnostics)). Homogenized with Polytron for 1 min and sonicated on ice for 2×2 minutes at 80% intensity (Vibracell sonicator). The preparation is centrifuged 20 min at 500 g at 4° C., the pellet is discarded and the supernatant centrifuged 1 hour at 43'000 g at 4° C. (19'000 rpm). The pellet is resuspended in 12.5 ml Lysis buffer+12.5 ml Sucrose 20% and homogenized using a Polytron for 1-2 min. The protein concentration is determined by the Bradford method and aliquots are stored at −80° C. until use. For binding studies 60 mg Yttrium silicate SPA beads (Amersham) are mixed with an aliquot of membrane in binding buffer (50 mM Tris, 120 mM sodium chloride, 5 mM potassium chloride, 2 mM Calcium dichloride, 10 mM magnesium dichloride) for 15 minutes with mixing. 50 μl of bead/membrane mixture is then added to each well of a 96 well plate, followed by 50 μl of 4 nM 3H-Vasopressin (American Radiolabeled Chemicals). For total binding measurement 100 μl of binding buffer are added to the respective wells, for non-specific binding 100 μl of 8.4 mM cold vasopressin and for compound testing 100 μl of a serial dilution of each compound in 2% dimethyl sulfoxide. The plate is incubated 1 h at room temperature, centrifuged […] at 1000 g and counted on a Packard Top-Count. Non-specific binding counts are subtracted from each well and data is normalized to the maximum specific binding set at 100%. To calculate an IC 50 the curve is fitted using a non-linear regression model (XLfit) and the Ki is calculated using the Cheng-Prussoff equation.

T1 sequence (P37288 whole entry): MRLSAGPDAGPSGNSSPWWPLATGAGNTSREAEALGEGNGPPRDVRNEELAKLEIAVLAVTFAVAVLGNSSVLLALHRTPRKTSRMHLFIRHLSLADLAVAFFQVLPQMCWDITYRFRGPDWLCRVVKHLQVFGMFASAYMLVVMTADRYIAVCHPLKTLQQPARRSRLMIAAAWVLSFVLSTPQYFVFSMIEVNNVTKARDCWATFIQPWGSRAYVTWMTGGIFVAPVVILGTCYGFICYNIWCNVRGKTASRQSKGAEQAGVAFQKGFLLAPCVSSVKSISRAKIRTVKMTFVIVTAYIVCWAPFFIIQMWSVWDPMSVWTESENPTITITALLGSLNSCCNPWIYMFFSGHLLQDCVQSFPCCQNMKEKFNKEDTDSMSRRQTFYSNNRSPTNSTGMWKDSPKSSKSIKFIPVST

Compound	Ki [nM]
Cc1cccc(O[C@H]2CC[C@H](c3nnc4n3-c3ccc(Cl)cc3CN(C)C4)CC2)c1 [Example 37, trans-8-Chloro-5-methyl-1-(4-m-tolyloxy-cyclohexyl)-5,6-dihydro-4H-2,3,5,10b-tetraaza-benzo[e]azulene]	1.7
CC(C)(C)OC(=O)N1Cc2cc(Cl)ccc2-n2c(nnc2[C@H]2CC[C@H](Oc3cccc(C(C)(C)C)c3)CC2)C1 [Example 38, trans-1-[4-(3-tert-Butyl-phenoxy)-cyclohexyl]-8-chloro-4H,6H-2,3,5,10b-tetraaza-benzo[e]azulene-5-carboxylic acid tert-butyl ester]	18.2
CC(C)(C)OC(=O)N1Cc2cc(Cl)ccc2-n2c(nnc2[C@H]2CC[C@H](Oc3ccccc3F)CC2)C1 [Example 43, trans-8-Chloro-1-[4-(2-fluoro-phenoxy)-cyclohexyl]-4H,6H-2,3,5,10b-tetraaza-benzo[e]azulene-5-carboxylic acid tert-butyl ester]	6.17
Fc1ccccc1O[C@H]1CC[C@H](c2nnc3n2-c2ccc(Cl)cc2CNC3)CC1 [Example 44, trans-8-Chloro-1-[4-(2-fluoro-phenoxy)-cyclohexyl]-5,6-dihydro-4H-2,3,5,10b-tetraaza-benzo[e]azulene hydrochloride]	3.39
CN1Cc2cc(Cl)ccc2-n2c(nnc2[C@H]2CC[C@H](Oc3ccccc3F)CC2)C1 [Example 45, trans-8-Chloro-1-[4-(2-fluoro-phenoxy)-cyclohexyl]-5-methyl-5,6-dihydro-4H-2,3,5,10b-tetraaza-benzo[e]azulene]	3.63
CC(C)(C)OC(=O)N1Cc2cc(Cl)ccc2-n2c(nnc2[C@H]2CC[C@H](Oc3ccccc3C#N)CC2)C1 [Example 46, trans-8-Chloro-1-[4-(2-cyano-phenoxy)-cyclohexyl]-4H,6H-2,3,5,10b-tetraaza-benzoazulene-5-carboxylic acid tert-butyl ester]	2.88
N#Cc1ccccc1O[C@H]1CC[C@H](c2nnc3n2-c2ccc(Cl)cc2CNC3)CC1 [Example 47, trans-2-[4-(8-Chloro-5,6-dihydro-4H-2,3,5,10b-tetraaza-benzo[e]azulen-1-yl)-cyclohexyloxy]-benzonitrile hydrochloride]	1.2
CN1Cc2cc(Cl)ccc2-n2c(nnc2[C@H]2CC[C@H](Oc3ccccc3C#N)CC2)C1 [Example 48, trans-2-[4-(8-Chloro-5-methyl-5,6-dihydro-4H-2,3,5,10b-tetraaza-benzoazulen-1-yl)-cyclohexyloxy]-benzonitrile]	0.794
Cc1ccccc1O[C@H]1CC[C@H](c2nnc3n2-c2ccc(Cl)cc2CN(C(=O)OC(C)(C)C)C3)CC1 [Example 49, trans-8-Chloro-1-(4-o-tolyloxy-cyclohexyl)-4H,6H-2,3,5,10b-tetraaza-benzoazulene-5-carboxylic acid tert-butyl ester]	7.08
Cc1ccccc1O[C@H]1CC[C@H](c2nnc3n2-c2ccc(Cl)cc2CN(C)C3)CC1 [Example 51, trans-8-Chloro-5-methyl-1-(4-o-tolyloxy-cyclohexyl)-5,6-dihydro-4H-2,3,5,10b-tetraaza-benzoazulene]	3.72
CC(C)(C)OC(=O)N1Cc2cc(Cl)ccc2-n2c(nnc2[C@H]2CC[C@H](Oc3cc(F)cc(F)c3)CC2)C1 [Example 52, trans-8-Chloro-1-[4-(3,5-difluoro-phenoxy)-cyclohexyl]-4H,6H-2,3,5,10b-tetraaza-benzoazulene-5-carboxylic acid tert-butyl ester]	3.47
CN1Cc2cc(Cl)ccc2-n2c(nnc2[C@H]2CC[C@H](Oc3cc(F)cc(F)c3)CC2)C1 [Example 54, trans-8-Chloro-1-[4-(3,5-difluoro-phenoxy)-cyclohexyl]-5-methyl-5,6-dihydro-4H-2,3,5,10b-tetraaza-benzoazulene]	3.89
CC(C)(C)OC(=O)N1Cc2cc(Cl)ccc2-n2c(nnc2[C@H]2CC[C@H](Oc3ccc4ccccc4c3)CC2)C1 [Example 55, trans-8-Chloro-1-[4-(naphthalen-2-yloxy)-cyclohexyl]-4H,6H-2,3,5,10b-tetraaza-benzoazulene-5-carboxylic acid tert-butyl ester]	9.33
CN1Cc2cc(Cl)ccc2-n2c(nnc2[C@H]2CC[C@H](Oc3ccc4ccccc4c3)CC2)C1 [Example 57, trans-8-Chloro-5-methyl-1-[4-(naphthalen-2-yloxy)-cyclohexyl]-5,6-dihydro-4H-2,3,5,10b-tetraaza-benzoazulene]	5.75
CC(C)(C)OC(=O)N1Cc2cc(Cl)ccc2-n2c(nnc2[C@H]2CC[C@H](Oc3cccnc3)CC2)C1 [Example 61, trans-8-Chloro-1-[4-(pyridin-3-yloxy)-cyclohexyl]-4H,6H-2,3,5,10b-tetraaza-benzoazulene-5-carboxylic acid tert-butyl ester]	1.51
CN1Cc2cc(Cl)ccc2-n2c(nnc2[C@H]2CC[C@H](Oc3cccnc3)CC2)C1 [Example 63, trans-8-Chloro-5-methyl-1-[4-(pyridin-3-yloxy)-cyclohexyl]-5,6-dihydro-4H-2,3,5,10b-tetraaza-benzoazulene]	4.57
CC(C)(C)OC(=O)N1Cc2cc(Cl)ccc2-n2c(nnc2[C@H]2CC[C@H](Oc3cncc(Cl)c3)CC2)C1 [Example 64, trans-8-Chloro-1-[4-(5-chloro-pyridin-3-yloxy)-cyclohexyl]-4H,6H-2,3,5,10b-tetraaza-benzoazulene-5-carboxylic acid tert-butyl ester]	9.55
CN1Cc2cc(Cl)ccc2-n2c(nnc2[C@H]2CC[C@H](Oc3cncc(Cl)c3)CC2)C1 [Example 66, trans-8-Chloro-1-[4-(5-chloro-pyridin-3-yloxy)-cyclohexyl]-5-methyl-5,6-dihydro-4H-2,3,5,10b-tetraaza-benzoazulene]	9.12
CC(C)(C)OC(=O)N1Cc2cc(Cl)ccc2-n2c(nnc2[C@H]2CC[C@H](Oc3ccccn3)CC2)C1 [Example 67, trans-8-Chloro-1-[4-(pyridin-2-yloxy)-cyclohexyl]-4H,6H-2,3,5,10b-tetraaza-benzoazulene-5-carboxylic acid tert-butyl ester]	3.31
Clc1ccc2c(c1)CNCc1nnc([C@H]3CC[C@H](Oc4ccccn4)CC3)n1-2 [Example 68, trans-8-Chloro-1-[4-(pyridin-2-yloxy)-cyclohexyl]-5,6-dihydro-4H-2,3,5,10b-tetraaza-benzoazulene hydrochloride]	6.17
CN1Cc2cc(Cl)ccc2-n2c(nnc2[C@H]2CC[C@H](Oc3ccccn3)CC2)C1 [Example 69, trans-8-Chloro-5-methyl-1-[4-(pyridin-2-yloxy)-cyclohexyl]-5,6-dihydro-4H-2,3,5,10b-tetraaza-benzoazulene]	1.1
CC(C)(C)OC(=O)N1Cc2cc(Cl)ccc2-n2c(nnc2[C@H]2CC[C@H](Oc3cccc(Cl)n3)CC2)C1 [Example 70, trans-8-Chloro-1-[4-(6-chloro-pyridin-2-yloxy)-cyclohexyl]-4H,6H-2,3,5,10b-tetraaza-benzo[e]azulene-5-carboxylic acid tert-butyl ester]	9.12
CN1Cc2cc(Cl)ccc2-n2c(nnc2[C@H]2CC[C@H](Oc3cccc(Cl)n3)CC2)C1 [Example 72, trans-8-Chloro-1-[4-(6-chloro-pyridin-2-yloxy)-cyclohexyl]-5-methyl-5,6-dihydro-4H-2,3,5,10b-tetraaza-benzo[e]azulene]	2.4
Clc1ccc(O[C@H]2CC[C@H](c3nnc4n3-c3ccc(Cl)cc3CNC4)CC2)nc1 [Example 74, trans-8-Chloro-1-[4-(5-chloro-pyridin-2-yloxy)-cyclohexyl]-5,6-dihydro-4H-2,3,5,10b-tetraaza-benzo[e]azulene hydrochloride]	11.2
CN1Cc2cc(Cl)ccc2-n2c(nnc2[C@H]2CC[C@H](Oc3ccc(Cl)cn3)CC2)C1 [Example 75, trans-8-Chloro-1-[4-(5-chloro-pyridin-2-yloxy)-cyclohexyl]-5-methyl-5,6-dihydro-4H-2,3,5,10b-tetraaza-benzo[e]azulene]	2.82
CC(C)(C)OC(=O)N1Cc2cc(Cl)ccc2-n2c(nnc2[C@H]2CC[C@H](Oc3ncccn3)CC2)C1 [Example 79, trans-8-Chloro-1-[4-(pyrimidin-2-yloxy)-cyclohexyl]-4H,6H-2,3,5,10b-tetraaza-benzo[e]azulene-5-carboxylic acid tert-butyl ester]	2.57
CC(C)(C)OC(=O)N1Cc2cc(Cl)ccc2-n2c(nnc2[C@H]2CC[C@@H](Oc3ncccn3)CC2)C1 [Example 80, cis-8-Chloro-1-[4-(pyrimidin-2-yloxy)-cyclohexyl]-4H,6H-2,3,5,10b-tetraaza-benzo[e]azulene-5-carboxylic acid tert-butyl ester]	12.6
